The source made the active and inactive calls. The calls are words filed in the database; no cut-off is given here.
How the values were obtained:
Primary neuron [1] = assay: Protection against oxygen-glucose deprivation-induced cytotoxicity in Sprague-Dawley rat cerebral cortex primary neuronal cell cultures assessed as increase in cell viability at 0.1 to 250 uM added at onset of recovery period by MTT assay; format: functional, tissue-based
[2] = Toxicity in Sprague-Dawley rat cerebral cortex primary neuronal cell cultures under oxygen-glucose deprivation conditions assessed as […] in cell viability at >50 uM added at onset of recovery period by MTT assay; format: tissue-based; conditions: primary neuron
Rattus norvegicus [3] = assay: Neuroprotection in Wistar rat model of ischemia assessed as reduction in neurological deficit score at 40 mg/kg measured after 5 days of reperfusion; format: functional, organism-based
Primary neuron [4] = assay: Protection against oxygen-glucose deprivation-induced cytotoxicity in Sprague-Dawley rat cerebral cortex primary neuronal cell cultures assessed as increase in cell viability at 250 uM added at onset of recovery period and measured during recovery for 5 days by MTT assay; format: functional, tissue-based
Rattus norvegicus [5] = assay: Neuroprotection in Wistar rat model of ischemia assessed as reduction ischemia-induced neuronal death in cortical regions at 40 mg/kg, ip dosed at onset of reperfusion period and measured on 5 days of reperfusion by fluoro jade B staining based fluorescence microscopy; format: functional; design: scale not given: the % may be the effect or the level left
Rattus norvegicus [6] = assay: Neuroprotection in Wistar rat model of ischemia assessed as reduction ischemia-induced neuronal death in hippocampal CA1 regions at 40 mg/kg, ip dosed at onset of reperfusion period and measured on 5 days of reperfusion by fluoro jade B staining based fluorescence microscopy; format: functional; design: scale not given: the % may be the effect or the level left
Rattus norvegicus [7] = assay: Neuroprotection in Wistar rat model of ischemia assessed as reduction ischemia-induced neuronal apoptosis in cortical regions at 40 mg/kg, ip dosed at onset of reperfusion period and measured on 5 days of reperfusion by TUNEL assay; format: functional; design: scale not given: the % may be the effect or the level left
Primary neuron [8] = assay: Protection against oxygen-glucose deprivation-induced cytotoxicity in Sprague-Dawley rat cerebral cortex primary neuronal cell cultures assessed as increase in cell viability at 250 uM added after 48 hrs post recovery period and measured during recovery for 5 days by MTT assay; format: functional, tissue-based
Rattus norvegicus [9] = assay: Neuroprotection in Wistar rat model of ischemia assessed as reduction ischemia-induced neuronal apoptosis in hippocampal CA1 regions at 40 mg/kg, ip dosed at onset of reperfusion period and measured on 5 days of reperfusion by TUNEL assay; format: functional; design: scale not given: the % may be the effect or the level left
Primary neuron [10] = assay: Protection against oxygen-glucose deprivation-induced cytotoxicity in Sprague-Dawley rat cerebral cortex primary neuronal cell cultures assessed as increase in cell viability at 250 uM added at onset of recovery period by MTT assay; format: functional, tissue-based
Primary neuron [11] = assay: Protection against oxygen-glucose deprivation-induced cytotoxicity in Sprague-Dawley rat cerebral cortex primary neuronal cell cultures assessed as increase in cell viability at 1 and 5 uM added at onset of recovery period and measured during recovery for 5 days by MTT assay; format: functional, tissue-based
Primary neuron [12] = assay: Protection against oxygen-glucose deprivation-induced cytotoxicity in Sprague-Dawley rat cerebral cortex primary neuronal cell cultures assessed as increase in cell viability at 5 uM added at onset of recovery period by MTT assay; format: functional, tissue-based
Primary neuron [13] = assay: Protection against oxygen-glucose deprivation-induced cytotoxicity in Sprague-Dawley rat cerebral cortex primary neuronal cell cultures assessed as increase in cell viability at 1 and 5 uM added after 48 hrs post recovery period and measured during recovery for 5 days by MTT assay; format: functional, tissue-based
[14] = Protection against oxygen-glucose deprivation-induced cytotoxicity in Sprague-Dawley rat cerebral cortex primary neuronal cell cultures assessed as increase in cell viability at 5 uM added at onset of recovery period and measured during recovery for 5 days by MTT assay (reference value: 0.842 AU); format: functional, Primary neuron
Primary neuron [15] = assay: Protection against oxygen-glucose deprivation-induced cytotoxicity in Sprague-Dawley rat cerebral cortex primary neuronal cell cultures assessed as increase in cell viability at 1 uM added at onset of recovery period by MTT assay; format: functional, tissue-based
[16] = Protection against oxygen-glucose deprivation-induced cytotoxicity in Sprague-Dawley rat cerebral cortex primary neuronal cell cultures assessed as increase in cell viability at 1 uM added at onset of recovery period and measured during recovery for 5 days by MTT assay (reference value: 0.842 AU); format: functional, Primary neuron
Primary neuron [17] = assay: Reduction of oxygen-glucose deprivation-induced ROS generation in Sprague-Dawley rat cerebral cortex primary neuronal cell cultures at 1 to 10 uM measured at 2 hrs of recovery after oxygen-glucose deprivation by fluorescence assay; format: functional, tissue-based
Rattus norvegicus [18] = assay: Neuroprotection in Wistar rat model of ischemia assessed as reduction ischemia-induced neuronal apoptosis in cortical regions at 0.05 and 0.1 mg/kg, ip dosed at onset of reperfusion period and measured on 5 days of reperfusion by TUNEL assay; format: functional; design: scale not given: the % may be the effect or the level left
Rattus norvegicus [19] = assay: Neuroprotection in Wistar rat model of ischemia assessed as reduction ischemia-induced neuronal death in cortical regions at 0.1 mg/kg, ip dosed at onset of reperfusion period and measured on 5 days of reperfusion by fluoro jade B staining based fluorescence microscopy; format: functional; design: scale not given: the % may be the effect or the level left
Rattus norvegicus [20] = assay: Neuroprotection in Wistar rat model of ischemia assessed as reduction in neurological deficit score at 0.005 mg/kg measured after 5 days of reperfusion (reference value: 2.5 +/- 0.34 No unit); format: functional
Rattus norvegicus [21] = assay: Neuroprotection in Wistar rat model of ischemia assessed as reduction ischemia-induced neuronal death in cortical regions at 0.05 mg/kg, ip dosed at onset of reperfusion period and measured on 5 days of reperfusion by fluoro jade B staining based fluorescence microscopy; format: functional; design: scale not given: the % may be the effect or the level left
Rattus norvegicus [22] = assay: Neuroprotection in Wistar rat model of ischemia assessed as reduction in neurological deficit score at 0.1 mg/kg measured after 5 days of reperfusion (reference value: 2.5 +/- 0.34 No unit); format: functional
Rattus norvegicus [23] = assay: Neuroprotection in Wistar rat model of ischemia assessed as reduction ischemia-induced neuronal death in hippocampal CA1 regions at 0.05 mg/kg, ip dosed at onset of reperfusion period and measured on 5 days of reperfusion by fluoro jade B staining based fluorescence microscopy; format: functional; design: scale not given: the % may be the effect or the level left
[24] = Toxicity in Sprague-Dawley rat cerebral cortex primary neuronal cell cultures under oxygen-glucose deprivation conditions assessed as […] in cell viability at >10 uM added at onset of recovery period by MTT assay; format: tissue-based; conditions: primary neuron
Rattus norvegicus [25] = assay: Neuroprotection in Wistar rat model of ischemia assessed as reduction ischemia-induced neuronal death in hippocampal CA1 regions at 0.1 mg/kg, ip dosed at onset of reperfusion period and measured on 5 days of reperfusion by fluoro jade B staining based fluorescence microscopy; format: functional; design: scale not given: the % may be the effect or the level left
Primary neuron [26] = assay: Reduction of oxygen-glucose deprivation-induced lipid peroxidation in Sprague-Dawley rat cerebral cortex primary neuronal cell cultures assessed as reduction in MDA level at 5 uM measured at 4 hrs of recovery after oxygen-glucose deprivation by TBARS based colorimetric and fluorometric assay; format: functional, tissue-based
Rattus norvegicus [27] = assay: Neuroprotection in Wistar rat model of ischemia assessed as reduction ischemia-induced neuronal apoptosis in hippocampal CA1 regions at 0.05 and 0.1 mg/kg, ip dosed at onset of reperfusion period and measured on 5 days of reperfusion by TUNEL assay; format: functional; design: scale not given: the % may be the effect or the level left

Compound: CC(C)CCC[C@@H](C)[C@H]1CC[C@H]2[C@@H]3CCC4=CC(=O)CC[C@]4(C)[C@H]3CC[C@]12C [4-CHOLESTEN 3-ONE]
- Activity (Primary neuron [1]): inactive
- Activity [2]: Toxic

Compound: CC(C)(C)/[N+]([O-])=C/c1ccc(S(=O)(=O)[O-])cc1S(=O)(=O)[O-].[Na+].[Na+]
- Activity (Rattus norvegicus [3]): inactive
- Activity (Primary neuron [4]): inactive
- Activity (Rattus norvegicus [5]): 66%
- Activity (Rattus norvegicus [6]): 17%
- Activity (Rattus norvegicus [7]): 55%
- Activity (Primary neuron [8]): inactive
- Activity (Rattus norvegicus [9]): 21%
- Activity (Primary neuron [10]): Active

Compound: CC(C)CCC[C@@H](C)[C@H]1CC[C@H]2[C@@H]3CCC4=C/C(=[N+](/C)[O-])CC[C@]4(C)[C@H]3CC[C@]12C
- Activity (Primary neuron [11]): Active
- Activity (Primary neuron [12]): inactive
- Activity (Primary neuron [13]): Active
- Activity [14]: 0.998 a.u.
- Activity (Primary neuron [15]): inactive
- Activity [16]: 0.888 a.u.

Compound: CC(C)CCC[C@@H](C)[C@H]1CC[C@H]2[C@@H]3CC=C4CC(=O)CC[C@]4(C)[C@H]3CC[C@]12C
- Activity (Primary neuron [1]): inactive

Compound: CC(C)CCC[C@@H](C)[C@H]1CC[C@H]2[C@@H]3CCC4=C/C(=[N+](\C)[O-])CC[C@]4(C)[C@H]3CC[C@]12C
- Activity (Primary neuron [17]): Active
- Activity (Rattus norvegicus [18]): 89%
- Activity (Rattus norvegicus [19]): 83%
- Activity (Primary neuron [11]): Active
- Activity (Primary neuron [12]): Active
- Activity (Rattus norvegicus [20]): 0.5
- Activity (Rattus norvegicus [21]): 66%
- Activity (Primary neuron [13]): Active
- Activity (Rattus norvegicus [22]): 1.25
- Activity [14]: 0.995 a.u.
- Activity (Rattus norvegicus [23]): 17%
- Activity [24]: Toxic
- Activity (Rattus norvegicus [25]): 27%
- Activity (Primary neuron [15]): Active
- Activity (Primary neuron [26]): Active
- Activity (Rattus norvegicus [27]): 30%
- Activity [16]: 0.931 a.u.
- Activity (Primary neuron [10]): Active

Source: ChEMBL document CHEMBL3600301, “CholesteroNitrones for Stroke” (J Med Chem, 2015)
